Patent US9975857B2, “Inhibition of bacterial biofilms with imidazole-phenyl derivatives” (North Carolina State University, priority 2008, dated 2018)

Tested on: A. baumannii
Experiment: Biofilm inhibition assay (crystal violet, 96-well PVC plate)
Type: cell-based
Details: Acinetobacter baumannii, LB medium, 37° C., 24 hours, crystal violet OD540; for IC50: read-out: ACTIVITY against A. baumannii: IC50 (biofilm inhibition)
Procedure: Biofilm inhibition assays were performed by taking an overnight culture of bacterial strain and subculturing it at an OD600 of 0.10 into LB medium. The compound being tested was then added at a predetermined concentration and then aliquoted (100 μL) into the wells of a 96-well PVC microtiter plate (Wells not used for samples were filled with 100 μL of de-ionized water). Plates were then wrapped in GLAD Press n' Seal® and incubated under stationary conditions at 37° C. After 24 hours, the media was discarded from the wells and the plates were washed thoroughly with tap water. Plates were then stained with 100 μL of 0.1% solution of crystal violet (CV) and then incubated at an ambient temperature for 30 minutes. Sample plates were then washed with tap water again, and the remaining stain was solubilized with 200 μL of 95% ethanol. Biofilm inhibition was quantitated by measuring the OD540 for each well by transferring 125 μL of the solubilized CV stain into a polystyrene microtiter dish for analysis.

Row | Structure (SMILES) | IC50 [µM] | inhibition at 100 µM (at 100 μM, read-out: ACTIVITY against A. baumannii: % inhibition (biofilm inhibition)) [%]
1 | Nc1ncc(-c2ccc(C#Cc3cc(F)cc(F)c3)cc2)[nH]1 | < 50 | 
2 | Nc1ncc(-c2ccc(C#Cc3ccccc3)cc2)[nH]1 | 6.54 | 
3 | COc1ccc(C#Cc2ccccc2-c2cnc(N)[nH]2)c(C)c1 | 40 to 50 | 
4 | Nc1ncc(-c2ccccc2C#Cc2cccc(Cl)c2)[nH]1 | < 50 | 
5 | Nc1ncc(-c2ccccc2C#Cc2ccccc2)[nH]1 | 50 to 75 | 
6 | COc1ccccc1C#Cc1cccc(-c2cnc(N)[nH]2)c1 |  | 34
